Measured values reported in patent US20220378756A1, “ACTIVATING PYRUVATE KINASE R” (FORMA Therapeutics, Inc., priority 2019, published 2022).

Test system: 2,3-DPG, ATP and p50 in blood
Test: Phase 1 SAD/MAD, healthy volunteers: pharmacodynamics
Type: in vivo, human
Conditions: for Median Percentage Change in 2,3-DPG Levels: HV
Excerpt: This is a first-in-human (FIH), Phase 1 study of Compound 1 that will characterize the safety, PK, and PD of Compound 1 after a single dose and after repeated dosing first in healthy adult volunteers and then in adolescents or adults with sickle cell disease. Initially, a dose range of Compound 1 in single ascending dose (SAD) escalation cohorts will be explored in healthy subjects. Enrollment of healthy subjects into 2-week multiple ascending dose (MAD) escalation cohorts will be initiated once the safety and PK from at least two SAD cohorts is available to inform the doses for the 2-week MAD portion of the study. The MAD cohorts will then run in parallel to the single dose cohorts. A single dose cohort is planned to understand food effects (FE) on the PK of Compound 1. […] Multiple dose studies in SCD subjects will then be initiated upon completion of MAD studies in healthy volunteers. Compound 1 will be administered in 25 mg and 100 mg tablets delivered orally.
In this study, SAD/MAD cohorts are randomized (3 to 1) to receive Compound 1 or placebo (P). Compound 1 was evaluated first in 4 healthy SAD cohorts and 4 healthy MAD (14-day dosing period) cohorts. Based on the safety, and PK/PD profile from HS, Compound 1 is then evaluated in 1 SCD SAD cohort and 2 SCD MAD cohorts. Specifically, based on the safety and pharmacokinetic/pharmacodynamics (PK/PD) profile in healthy volunteer studies, Compound 1 is evaluated in patients (pts) with SCD, first in a single dose (SD or SAD) cohort and then in multiple-dose (MD or MAD) cohorts (14-day and 12-week). Safety assessments include AEs, vital signs, ECGs and laboratory parameters. PK/PD blood sampling was performed on Day 1 (SAD/MAD) and Day 14 (MAD) and up to 72 h after the last dose and at the end-of-study visit. PD parameters included 2,3-DPG, ATP, and p50 in all cohorts with additional PD studies (including oxygen scan) performed only in the SCD cohorts. PD parameters included 2,3-DPG, ATP, p50, RBC deformability with controlled deoxygenation and reoxygenation (Lorrca® oxygen scan) and varying osmolality (Lorrca® osmoscan)). To maintain study blind, pt identifiers were removed when needed.
Four healthy SAD cohorts were evaluated at doses of 200, 400, 700, and 1000 mg, and four healthy MAD cohorts received 200 to 600 mg total daily doses for 14 days at QD or BID dosing (100 mg BID, 200 mg BID, 300 mg BID, and 400 mg QD). In the food effect (FE) cohort, 10 healthy subjects received 200 mg of Compound 1 QD with and without food.
In the SAD cohorts, the subjects' blood 2,3-DPG levels were measured periodically after dosing by a qualified LC-MS/MS method for the quantitation of 2,3-DPG in blood. Decreased 2,3-DPG blood levels were observed 6 hours following a single dose of Compound 1 at all dose levels (earlier timepoints were not collected). Maximum decreases in 2,3-DPG levels generally occurred ˜24 hours after the first dose with the reduction sustained ˜48-72 hr postdose. Table 16 reports the median percentage change in 2,3-DPG blood levels, relative to baseline, measured over time in healthy volunteers after a single dose of Compound 1 (200 mg, 400 mg, 700 mg, or 1000 mg) or placebo. Accordingly, the median reduction in the concentration of 2,3-DPG, relative to baseline, was at least about […] at all dose levels tested 24 hours after administration of the single dose.
In the MAD cohorts, the subjects' blood 2,3-DPG levels were measured periodically after dosing by a qualified LC-MS/MS method for the quantitation of 2,3-DPG in blood. The maximum decrease in 2,3-DPG on Day 14 was 55% from baseline (median). […] Table 18 reports the median percentage change in 2,3-DPG blood levels, relative to baseline, measured over time after the first dose on days 1 and 14 in healthy volunteers who received daily doses of Compound 1 (100 mg BID, 200 mg BID, or 300 mg BID) or placebo for 14 days. […]

[1] = MAD, N = 36, all doses and timepoints
[2] = SAD, N = 24, all doses and timepoints

O=C([C@H](CO)c1ccccc1)N1CC2=C(C1)CN(S(=O)(=O)c1cnc3c(c1)OCCO3)C2 (single isomer, unassigned) [Compound 1]
Median Percentage Change in 2,3-DPG Levels (300 mg BID, Day 1, 16 h after first daily dose): −40.7%
Median Percentage Change in 2,3-DPG Levels (300 mg BID, Day 1, 24 h after first daily dose): −50.8%
Median Percentage Change in 2,3-DPG Levels (300 mg BID, Day 14, 0 h after first daily dose): −59.4%
Median Percentage Change in 2,3-DPG Levels (300 mg BID, Day 14, 6 h after first daily dose): −53.0%
Median Percentage Change in 2,3-DPG Levels (300 mg BID, Day 14, 8 h after first daily dose): −54.2%
Median Percentage Change in 2,3-DPG Levels (300 mg BID, Day 14, 12 h after first daily dose): −55.3%
Median Percentage Change in 2,3-DPG Levels (300 mg BID, Day 14, 16 h after first daily dose): −52.4%
Median Percentage Change in 2,3-DPG Levels (300 mg BID, Day 14, 24 h after first daily dose): −52.1%
Median Percentage Change in 2,3-DPG Levels (300 mg BID, Day 14, 48 h after first daily dose): −44.5%
Median Percentage Change in 2,3-DPG Levels (300 mg BID, Day 14, 72 h after first daily dose): −32.9%
Median Percentage Change in 2,3-DPG Levels (single dose 200 mg, 0 h after dose): 0.0%
Median Percentage Change in 2,3-DPG Levels (single dose 200 mg, 6 h after dose): −18%
Median Percentage Change in 2,3-DPG Levels (single dose 200 mg, 8 h after dose): −17%
Median Percentage Change in 2,3-DPG Levels (single dose 200 mg, 12 h after dose): −25%
Median Percentage Change in 2,3-DPG Levels (single dose 200 mg, 16 h after dose): −33%
Median Percentage Change in 2,3-DPG Levels (single dose 200 mg, 24 h after dose): −31%
Median Percentage Change in 2,3-DPG Levels (single dose 200 mg, 36 h after dose): −33%
Median Percentage Change in 2,3-DPG Levels (single dose 200 mg, 48 h after dose): −29%
Median Percentage Change in 2,3-DPG Levels (single dose 200 mg, 72 h after dose): −18%
Median Percentage Change in 2,3-DPG Levels (single dose 400 mg, 0 h after dose): 0.0%
Median Percentage Change in 2,3-DPG Levels (single dose 400 mg, 6 h after dose): −23%
Median Percentage Change in 2,3-DPG Levels (single dose 400 mg, 8 h after dose): −29%
Median Percentage Change in 2,3-DPG Levels (single dose 400 mg, 12 h after dose): −40%
Median Percentage Change in 2,3-DPG Levels (single dose 400 mg, 16 h after dose): −35%
Median Percentage Change in 2,3-DPG Levels (single dose 400 mg, 24 h after dose): −39%
Median Percentage Change in 2,3-DPG Levels (single dose 400 mg, 36 h after dose): −38%
Median Percentage Change in 2,3-DPG Levels (single dose 400 mg, 48 h after dose): −31%
Median Percentage Change in 2,3-DPG Levels (single dose 400 mg, 72 h after dose): −30%
Median Percentage Change in 2,3-DPG Levels (single dose 700 mg, 0 h after dose): 0.0%
Median Percentage Change in 2,3-DPG Levels (single dose 700 mg, 6 h after dose): −29%
Median Percentage Change in 2,3-DPG Levels (single dose 700 mg, 8 h after dose): −28%
Median Percentage Change in 2,3-DPG Levels (single dose 700 mg, 12 h after dose): −41%
Median Percentage Change in 2,3-DPG Levels (single dose 700 mg, 16 h after dose): −46%
Median Percentage Change in 2,3-DPG Levels (single dose 700 mg, 24 h after dose): −49%
Median Percentage Change in 2,3-DPG Levels (single dose 700 mg, 36 h after dose): −46%
Median Percentage Change in 2,3-DPG Levels (single dose 700 mg, 48 h after dose): −48%
Median Percentage Change in 2,3-DPG Levels (single dose 700 mg, 72 h after dose): −33%
Median Percentage Change in 2,3-DPG Levels (single dose 1000 mg, 0 h after dose): 0.0%
Median Percentage Change in 2,3-DPG Levels (single dose 1000 mg, 6 h after dose): −20%
Median Percentage Change in 2,3-DPG Levels (single dose 1000 mg, 8 h after dose): −31%
Median Percentage Change in 2,3-DPG Levels (single dose 1000 mg, 12 h after dose): −44%
Median Percentage Change in 2,3-DPG Levels (single dose 1000 mg, 16 h after dose): −50%
Median Percentage Change in 2,3-DPG Levels (single dose 1000 mg, 24 h after dose): −48%
Median Percentage Change in 2,3-DPG Levels (single dose 1000 mg, 36 h after dose): −47%
Median Percentage Change in 2,3-DPG Levels (single dose 1000 mg, 48 h after dose): −47%
Median Percentage Change in 2,3-DPG Levels (single dose 1000 mg, 72 h after dose): −21%
mean maximum reduction in the concentration of 2,3-DPG (MAD study): at least 50%
mean maximum reduction in the concentration of 2,3-DPG, range (MAD study): 46.1-63.6%
Mean Maximum Percent Change from Baseline, 2,3-DPG [1]: −56.3%
Mean Maximum Percent Change from Baseline, ATP [1]: 68.5%
mean maximum reduction in the concentration of 2,3-DPG (SAD study): at least 40%
mean maximum reduction in the concentration of 2,3-DPG, range (SAD study): 35.4-56.1%
Mean Maximum Percent Change from Baseline, 2,3-DPG [2]: −46.8%
Mean Maximum Percent Change from Baseline, ATP [2]: 24.4%
